What all share (type): functional, cell-based
In assay [1] the test system is Calu-6. Kind of assay: Antiproliferative activity against human Calu6 cells after 72 hrs by MTS assay. Particulars: Calu-6, 72 h.
The subject of assay [2] is K562. The assay can be described thus: Antiproliferative activity against human K562 cells after 72 hrs by MTS assay. Particulars: K562, 72 h. A general note: Formazan colour is commonly taken as a measure of viable cells.
Assay [3] concerns MCF7. Kind of assay: Antiproliferative activity against human MCF7 cells after 72 hrs by MTS assay. Particulars: MCF7, 72 h.

Positions of bridges follow the written chain, without caps; N, C: chain ends. Residues, ends and D or L forms follow the SMILES beside them. *: point of attachment. Stearoyl = CCCCCCCCCCCCCCCCCC(=O)*

Broadly, the IC50 is the concentration that inhibits the measured activity by half. A high value points to lower potency. Take `CSCC[C@H](NC(=O)[C@@H](NC(=O)[C@H](CCCNC(=N)N)NC(=O)[C@H](C)N)[C@@H](C)O)C(=O)N[C@H]1CCCCNC(=O)CC[C@@H](C(=O)N[C@H](C(=O)N[C@@H](C)C(=O)NCC(=O)N[C@@H](CCCCN)C(=O)N[C@@H](C)C(=O)N2CCC[C@H]2C(=O)N[C@@H](CCCNC(=N)N)C(=O)N[C@@H](CCCCN)C(=O)N[C@@H](CCC(N)=O)C(=O)N[C@@H](CC(C)C)C(=O)N[C@@H](C)C(N)=O)[C@@H](C)O)NC(=O)[C@H](CCCCN)NC(=O)[C@H](CCCNC(=N)N)NC(=O)[C@H](C)NC(=O)[C@H]([C@@H](C)O)NC1=O` (H-ARTMKTARKETAGKAPRKQLA-NH2; lactam 5-10): the figures for the IC50 in assay [1], in assay [2] and in assay [3] were 766 µM, 42 µM and 1010 µM, respectively.

Consider `CCCCCCCCCCCCCCCCCC(=O)NCCCC[C@H](NC(=O)[C@H](C)NC(=O)[C@H](CC(C)C)NC(=O)[C@H](CCC(N)=O)NC(=O)[C@H](CCCCN)NC(=O)[C@H](CCCNC(=N)N)NC(=O)[C@@H]1CCCN1C(=O)[C@H](C)NC(=O)[C@H](CCCCN)NC(=O)CNC(=O)CNC(=O)[C@@H](NC(=O)[C@@H]1CCC(=O)NCCCC[C@H](NC(=O)[C@H](CCSC)NC(=O)[C@H](C)NC(=O)[C@H](CCCNC(=N)N)NC(=O)[C@H](C)N)C(=O)N[C@@H]([C@@H](C)O)C(=O)N[C@@H](C)C(=O)N[C@@H](CCCNC(=N)N)C(=O)N[C@@H](CCCCN)C(=O)N1)[C@@H](C)O)C(N)=O` (H-ARAMKTARKETGGKAPRKQLAK(Stearoyl)-NH2; lactam 5-10), for which the IC50 in assay [1] was determined as 10.1 µM; in assay [3], 4.6 µM.

For `CSCC[C@H](NC(=O)[C@@H](NC(=O)[C@H](CCCNC(=N)N)NC(=O)[C@H](C)N)[C@@H](C)O)C(=O)N[C@H]1CCCCNC(=O)CC[C@@H](C(=O)N[C@H](C(=O)NCC(=O)NCC(=O)N[C@@H](CCCCN)C(=O)N[C@@H](C)C(=O)N2CCC[C@H]2C(=O)N[C@@H](CCCNC(=N)N)C(=O)N[C@@H](CCCCN)C(=O)N[C@@H](CCC(N)=O)C(=O)N[C@@H](CC(C)C)C(=O)N[C@@H](C)C(N)=O)[C@@H](C)O)NC(=O)[C@H](CCCCN)NC(=O)[C@H](CCCNC(=N)N)NC(=O)[C@H](C)NC(=O)[C@H](C)NC1=O` (H-ARTMKAARKETGGKAPRKQLA-NH2; lactam 5-10), the IC50 in assay [1] worked out at 93 µM; in assay [2] it was 8.2 µM; in assay [3] it was 154 µM.

On to `CC(C)C[C@H](NC(=O)[C@H](CCC(N)=O)NC(=O)[C@H](CCCCN)NC(=O)[C@H](CCCNC(=N)N)NC(=O)[C@@H]1CCCN1C(=O)[C@H](C)NC(=O)[C@H](CCCCN)NC(=O)CNC(=O)CNC(=O)[C@@H](NC(=O)[C@@H]1CCC(=O)NCCCC[C@H](NC(=O)[C@H](C)NC(=O)[C@@H](NC(=O)[C@H](CCCNC(=N)N)NC(=O)[C@H](C)N)[C@@H](C)O)C(=O)N[C@@H]([C@@H](C)O)C(=O)N[C@@H](C)C(=O)N[C@@H](CCCNC(=N)N)C(=O)N[C@@H](CCCCN)C(=O)N1)[C@@H](C)O)C(=O)N[C@@H](C)C(N)=O` (H-ARTAKTARKETGGKAPRKQLA-NH2; lactam 5-10), for which the IC50 in assay [1] was 956 µM; in assay [2], 139 µM; in assay [3], 1240 µM.

On to `CCCCCCCCCCCCCCCCCC(=O)NCCCC[C@H](NC(=O)[C@H](C)NC(=O)[C@H](CC(C)C)NC(=O)[C@H](CCC(N)=O)NC(=O)[C@H](CCCCN)NC(=O)[C@H](CCCNC(=N)N)NC(=O)[C@@H]1CCCN1C(=O)[C@H](C)NC(=O)[C@H](CCCCN)NC(=O)CNC(=O)CNC(=O)[C@@H](NC(=O)[C@@H]1CCC(=O)NCCCC[C@H](NC(=O)[C@H](CCSC)NC(=O)[C@@H](NC(=O)[C@H](CCCNC(=N)N)NC(=O)[C@H](C)N)[C@@H](C)O)C(=O)N[C@@H]([C@@H](C)O)C(=O)N[C@@H](C)C(=O)N[C@@H](CCCNC(=N)N)C(=O)N[C@@H](CCCCN)C(=O)N1)[C@@H](C)O)C(N)=O`, for which the figures for the IC50 in assay [1] and in assay [3] were 7.9 µM and 4.4 µM, respectively.

Source of the values: ChEMBL document CHEMBL4196023, “Cyclic peptide inhibitors of lysine-specific demethylase 1 with improved potency identified by alanine scanning mutagenesis” (Eur J Med Chem, 2018).
